Data from ChEMBL document CHEMBL4257493, “Discovery of 7-hydroxyaporphines as conformationally restricted ligands for beta-1 and beta-2 adrenergic receptors” (Medchemcomm, 2018).

Key:
Details in all cases: concentration not given here
[1] = molecular target: Translocator protein (Homo sapiens) (UniProt P30536); assay: Binding affinity to PBR (unknown origin) assessed as inhibition of radioligand binding by radioligand competition binding assay
[2] = molecular target: Sodium-dependent dopamine transporter (Homo sapiens) (UniProt Q01959); assay: Binding affinity to DAT (unknown origin) assessed as inhibition of radioligand binding by radioligand competition binding assay
[3] = molecular target: Sodium-dependent noradrenaline transporter (Homo sapiens) (UniProt P23975); assay: Binding affinity to NET (unknown origin) assessed as inhibition of radioligand binding by radioligand competition binding assay
[4] = molecular target: Kappa-type opioid receptor (Homo sapiens) (UniProt P41145); assay: Binding affinity to KOR (unknown origin) assessed as inhibition of radioligand binding by radioligand competition binding assay
[5] = molecular target: Mu-type opioid receptor (Homo sapiens) (UniProt P35372); assay: Binding affinity to MOR (unknown origin) assessed as inhibition of radioligand binding by radioligand competition binding assay
[6] = molecular target: Sigma non-opioid intracellular receptor 1 (Homo sapiens) (UniProt Q99720); assay: Binding affinity to sigma1 receptor (unknown origin) assessed as inhibition of radioligand binding by radioligand competition binding assay
[7] = species on record: Homo sapiens; assay: Binding affinity to sigma2 receptor (unknown origin) assessed as inhibition of radioligand binding by radioligand competition binding assay
[8] = molecular target: Delta-type opioid receptor (Homo sapiens) (UniProt P41143); assay: Binding affinity to DOR (unknown origin) assessed as inhibition of radioligand binding by radioligand competition binding assay
[9] = molecular target: Muscarinic acetylcholine receptor M5 (Homo sapiens) (UniProt P08912); assay: Binding affinity to muscarinic M5 receptor (unknown origin) assessed as inhibition of radioligand binding by radioligand competition binding assay
[10] = species on record: Homo sapiens; assay: Binding affinity to GABAA receptor (unknown origin) assessed as inhibition of radioligand binding by radioligand competition binding assay
[11] = molecular target: Muscarinic acetylcholine receptor M3 (Homo sapiens) (UniProt P20309); assay: Binding affinity to muscarinic M3 receptor (unknown origin) assessed as inhibition of radioligand binding by radioligand competition binding assay
[12] = molecular target: Muscarinic acetylcholine receptor M4 (Homo sapiens) (UniProt P08173); assay: Binding affinity to muscarinic M4 receptor (unknown origin) assessed as inhibition of radioligand binding by radioligand competition binding assay
[13] = molecular target: Muscarinic acetylcholine receptor M1 (Homo sapiens) (UniProt P11229); assay: Binding affinity to muscarinic M1 receptor (unknown origin) assessed as inhibition of radioligand binding by radioligand competition binding assay
[14] = molecular target: Muscarinic acetylcholine receptor M2 (Homo sapiens) (UniProt P08172); assay: Binding affinity to muscarinic M2 receptor (unknown origin) assessed as inhibition of radioligand binding by radioligand competition binding assay
[15] = molecular target: Histamine H2 receptor (Homo sapiens) (UniProt P25021); assay: Binding affinity to histamine H2 receptor (unknown origin) assessed as inhibition of radioligand binding by radioligand competition binding assay
[16] = molecular target: Histamine H3 receptor (Homo sapiens) (UniProt Q9Y5N1); assay: Binding affinity to histamine H3 receptor (unknown origin) assessed as inhibition of radioligand binding by radioligand competition binding assay
[17] = molecular target: Histamine H4 receptor (Homo sapiens) (UniProt Q9H3N8); assay: Binding affinity to histamine H4 receptor (unknown origin) assessed as inhibition of radioligand binding by radioligand competition binding assay
[18] = molecular target: D(4) dopamine receptor (Homo sapiens) (UniProt P21917); assay: Binding affinity to dopamine D4 receptor (unknown origin) assessed as inhibition of radioligand binding by radioligand competition binding assay
[19] = molecular target: D(1B) dopamine receptor (Homo sapiens) (UniProt P21918); assay: Binding affinity to dopamine D5 receptor (unknown origin) assessed as inhibition of radioligand binding by radioligand competition binding assay
[20] = molecular target: Histamine H1 receptor (Homo sapiens) (UniProt P35367); assay: Binding affinity to histamine H1 receptor (unknown origin) assessed as inhibition of radioligand binding by radioligand competition binding assay
[21] = molecular target: D(1A) dopamine receptor (Homo sapiens) (UniProt P21728); assay: Binding affinity to dopamine D1 receptor (unknown origin) assessed as inhibition of radioligand binding by radioligand competition binding assay
[22] = molecular target: D(2) dopamine receptor (Homo sapiens) (UniProt P14416); assay: Binding affinity to dopamine D2 receptor (unknown origin) assessed as inhibition of radioligand binding by radioligand competition binding assay
[23] = molecular target: D(3) dopamine receptor (Homo sapiens) (UniProt P35462); assay: Binding affinity to dopamine D3 receptor (unknown origin) assessed as inhibition of radioligand binding by radioligand competition binding assay
[24] = molecular target: Alpha-1D adrenergic receptor (Homo sapiens) (UniProt P25100); assay: Binding affinity to andrenergic alpha1D receptor (unknown origin) assessed as inhibition of radioligand binding by radioligand competition binding assay
[25] = molecular target: Alpha-2C adrenergic receptor (Homo sapiens) (UniProt P18825); assay: Binding affinity to andrenergic alpha2C receptor (unknown origin) assessed as inhibition of radioligand binding by radioligand competition binding assay
[26] = molecular target: Alpha-1A adrenergic receptor (Homo sapiens) (UniProt P35348); assay: Binding affinity to andrenergic alpha1A receptor (unknown origin) assessed as inhibition of radioligand binding by radioligand competition binding assay
[27] = molecular target: Alpha-1B adrenergic receptor (Homo sapiens) (UniProt P35368); assay: Binding affinity to andrenergic alpha1B receptor (unknown origin) assessed as inhibition of radioligand binding by radioligand competition binding assay
[28] = molecular target: 5-hydroxytryptamine receptor 3A (Homo sapiens) (UniProt P46098); assay: Binding affinity to 5-HT3 receptor (unknown origin) assessed as inhibition of radioligand binding by radioligand competition binding assay
[29] = molecular target: 5-hydroxytryptamine receptor 5A (Homo sapiens) (UniProt P47898); assay: Binding affinity to 5-HT5A receptor (unknown origin) assessed as inhibition of radioligand binding by radioligand competition binding assay
[30] = molecular target: 5-hydroxytryptamine receptor 1E (Homo sapiens) (UniProt P28566); assay: Binding affinity to 5-HT1E receptor (unknown origin) assessed as inhibition of radioligand binding by radioligand competition binding assay
[31] = molecular target: 5-hydroxytryptamine receptor 2A (Homo sapiens) (UniProt P28223); assay: Binding affinity to 5-HT2A receptor (unknown origin) assessed as inhibition of radioligand binding by radioligand competition binding assay
[32] = molecular target: 5-hydroxytryptamine receptor 2C (Homo sapiens) (UniProt P28335); assay: Binding affinity to 5-HT2C receptor (unknown origin) assessed as inhibition of radioligand binding by radioligand competition binding assay

Measured: inhibition

COc1cc2c3c(c1OC)-c1ccccc1[C@@H](O)[C@@H]3NCC2
< 50%: all assays above
